Measurements from patent US8637237B2, “Methods, compositions, and systems for the identification of species-specific or developmental stage-specific insecticides” (The University of North Carolina at Greensboro, priority 2003, dated 2014).

Target: T1, EcRA/USP (Drosophila melanogaster, UniProt P34021)
T1 construct: The plasmid encodes a version of EcRA that includes 849 amino acids, and deletes the F domain; expressed in transfected cells; host or cells: CHO
T1 sequence (P34021 1-849 isoform P34021-2): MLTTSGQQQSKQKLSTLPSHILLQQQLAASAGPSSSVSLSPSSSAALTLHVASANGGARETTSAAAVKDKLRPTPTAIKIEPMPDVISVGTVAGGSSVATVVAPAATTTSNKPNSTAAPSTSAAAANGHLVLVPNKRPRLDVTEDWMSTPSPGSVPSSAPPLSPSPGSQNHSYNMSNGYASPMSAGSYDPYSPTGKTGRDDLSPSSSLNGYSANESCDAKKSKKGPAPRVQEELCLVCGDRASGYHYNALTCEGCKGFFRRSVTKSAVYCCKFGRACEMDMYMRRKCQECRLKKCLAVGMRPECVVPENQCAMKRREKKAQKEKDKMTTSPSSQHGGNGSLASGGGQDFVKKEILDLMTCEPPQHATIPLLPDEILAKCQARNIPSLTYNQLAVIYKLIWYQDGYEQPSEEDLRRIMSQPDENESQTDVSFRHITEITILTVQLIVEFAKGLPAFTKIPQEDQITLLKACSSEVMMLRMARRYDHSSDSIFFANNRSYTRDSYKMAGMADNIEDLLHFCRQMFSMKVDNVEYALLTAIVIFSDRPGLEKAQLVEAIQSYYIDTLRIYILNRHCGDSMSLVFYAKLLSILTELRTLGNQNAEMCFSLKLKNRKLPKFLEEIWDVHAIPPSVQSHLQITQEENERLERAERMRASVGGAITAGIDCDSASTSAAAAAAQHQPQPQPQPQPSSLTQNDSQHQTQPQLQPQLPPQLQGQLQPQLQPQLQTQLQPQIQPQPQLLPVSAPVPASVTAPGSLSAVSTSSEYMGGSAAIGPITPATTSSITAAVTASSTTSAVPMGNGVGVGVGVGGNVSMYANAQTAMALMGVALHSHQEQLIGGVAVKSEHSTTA
T1 sequence (O76202 192-472 partner): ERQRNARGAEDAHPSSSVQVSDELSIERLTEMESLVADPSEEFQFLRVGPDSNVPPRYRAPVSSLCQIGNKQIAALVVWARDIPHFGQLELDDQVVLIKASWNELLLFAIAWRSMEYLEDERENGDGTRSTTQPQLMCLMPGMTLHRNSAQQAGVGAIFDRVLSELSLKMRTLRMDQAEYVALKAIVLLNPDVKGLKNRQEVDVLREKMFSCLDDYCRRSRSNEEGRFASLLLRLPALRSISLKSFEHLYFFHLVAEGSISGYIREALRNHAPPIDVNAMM
Assay: EcRA isoform with USP (VP16CfUSP), (EcRE)5-ΔMTV-LUC in CHO cells
Type: cell-based
Method: These experiments employed a mammalian cell culture system using Chinese hamster ovary cells (CHO) to evaluate the transcriptional function of Drosophila melanogaster EcR and USP using methods described previously (U.S. Patent Application Publication No: 2005/0049230; Henrich et al, 2003). Cells were seeded in 6-well polypropylene culture plates (Falcon) with 10^5 cells per well on the day prior to transfection. Transfection was subsequently performed using either calcium phosphate (Kitareewan et al., 1996, Mol. Biol. Cell, 7:1153-1196) or a GenePorter reagent (Gene Therapy Systems, Inc; San Diego, Calif.) following manufacturer's protocols. Each well received 1.25 μg of (EcRE)5-ΔMTV-CAT (five copies of the hsp27 EcRE inserted into an mouse mammary tumor virus (MTV) promoter upstream of the chloramphenicol acetyltransferase (CAT) gene) or (EcRE)5-ΔMTV-LUC (the same promoter attached to firefly luciferase), 1.25 μg of pCH111 (SV40 early promoter linked to the β-galactosidase gene) to normalize CAT activity, and 0.25 μg of each expression plasmid (EcR, FXR, RXR, USP) that was tested. The cells were incubated with plasmid DNA for seven hours and then washed with 1×PBS. Muristerone A (murA; Alexis Biochemicals) or 20-hydroxyecdysone (20E; Sigma) dissolved in ethanol to a concentration of 10 mM was diluted as necessary to the final assay concentration (FAC) in 2 ml of fresh incubation medium that was then applied to the cells. Similarly, JHIII (Sigma) was dissolved in dimethyl sulfoxide (DMSO) to a concentration of […] and diluted into the incubation medium to its final assay concentration (20, 40, 80, 160 μM). […] A corresponding volume of ethanol and DMSO were added to control cells for all experiments. For all experiments, the cells were allowed to incubate with the medium for 24 hours before collection and cell lysates were prepared by described methods (Kitareewan et al., 1996). Both β-galactosidase and CAT reporter activity were measured based on previously used methods (Kitareewan et al, 1996). Luciferase assays using luciferrin followed the specifications of the manufacturer.
Transcriptional activity, measured as ^14C-chloramphenicol counts (for measuring CAT activity) or relative luciferase activity (RLU) was quantified for each cell lysate. The counts were then normalized by adjusting for differences in β-galactosidase activity, since β-galactosidase expression is controlled by a constitutive promoter and provides an estimate of cell mass. Data were normalized as fold-induction based on differences in reporter gene activity between hormonally treated and control cells.

CC(C)(O)CC[C@@H](O)[C@](C)(O)[C@H]1CC[C@@]2(O)C3=CC(=O)[C@@H]4C[C@@H](O)[C@@H](O)C[C@]4(C)[C@H]3CC[C@]12C [20E, 20-hydroxyecdysone]
transcriptional response to 20E (EcRA + VP16CfUSP, 10 μM 20E): consistent and discernible transcriptional response | 20E (inducibility) (EcRA/USP, 10 μM 20E): + ((+) designates a change in transcriptional level that exceeds 2.5-fold)

COC(=O)/C=C(\C)CC/C=C(\C)CC[C@H]1OC1(C)C [JHIII, juvenile hormone III]
potentiation of murA response by JHIII (EcRA + VP16CfUSP, 80 μM JHIII with 0.1 μM murA): potentiated | MurA + JHIII (JHIII potentiation) (EcRA/USP, 0.1 μM murA + 80 μM JHIII): + ((+) indicates observed potentiation that exceeds 2-fold above the levels observed with ecdysteroid alone)

CC(C)CC[C@@H](O)[C@](C)(O)[C@H]1CC[C@@]2(O)C3=CC(=O)[C@]4(O)C[C@@H](O)[C@@H](O)C[C@]4(C)[C@H]3[C@H](O)C[C@]12C [murA, muristerone A]
induction by murA (EcRA + VP16CfUSP, 1 μM murA): 30-40 fold | MurA (inducibility) (EcRA/USP, 0.1 μM murA): + ((+) designates a change in transcriptional level that exceeds 2.5-fold)
